Assay results as given in article PMC10167746, “Crystal structure of MbnF: an NADPH-dependent flavin monooxygenase from Methylocystis strain SB2” (Acta Crystallographica. Section F, Structural Biology …, 2023).
One block for each molecule: values may come before it.

How the values were obtained:
MbnF (MbnF-His) = target: T1, MbnF (MbnF-His) (Methylocystis sp. SB2, UniProt A0ACD6BAX2); test: X-ray crystal structure, […] A; type: binding; conditions: co-purified from E. coli, no FAD added; noncovalent; 'in' conformation, all three monomers of the asymmetric unit; crystals pH 6.5, 200 mM NaBr
T1 construct: gene CTY30_04200; full-length, C-terminal His6 tag kept (pET-41a, E. coli BL21(DE3)); monomer in solution (SEC), dimer in crystal

[1] = target: T2, MbnF from Methylocystis sp. strain SB2, C-terminally His6-tagged (Methylocystis sp. strain SB2); test: native MS; ESI-MS after a SEC column (ACQUITY UPLC Protein BEH SEC) under neutral pH, isocratic 50 mM ammonium acetate pH 6.6; mixture of 1 mg/ml MbnA, 500 µM MbnF, 250 mM NaCl, 50 mM HEPES pH 7.4; conditions: both partners purified
T2 construct: MbnF, Methylocystis sp. strain SB2; Computed mass 59.17 kDa as printed; also called MbnF-His; FAD-dependent oxidoreductase; source: E. coli BL21(DE3), pET-41, purified (HisTrap, Mono Q); not shown: His6, C-terminal, kept
T2 chain: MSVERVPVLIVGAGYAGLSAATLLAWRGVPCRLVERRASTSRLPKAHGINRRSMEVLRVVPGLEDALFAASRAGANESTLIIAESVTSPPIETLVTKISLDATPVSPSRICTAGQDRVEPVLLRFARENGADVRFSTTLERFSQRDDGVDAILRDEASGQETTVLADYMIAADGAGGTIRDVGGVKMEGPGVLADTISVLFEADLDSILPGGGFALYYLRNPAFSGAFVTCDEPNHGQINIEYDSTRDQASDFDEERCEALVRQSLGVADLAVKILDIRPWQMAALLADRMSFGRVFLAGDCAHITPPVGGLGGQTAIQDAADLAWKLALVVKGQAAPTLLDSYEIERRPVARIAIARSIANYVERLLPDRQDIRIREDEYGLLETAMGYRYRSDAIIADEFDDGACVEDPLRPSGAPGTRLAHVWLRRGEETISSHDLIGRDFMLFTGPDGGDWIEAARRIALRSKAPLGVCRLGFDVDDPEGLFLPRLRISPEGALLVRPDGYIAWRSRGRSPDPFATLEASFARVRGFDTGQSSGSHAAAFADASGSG

Molecule: Cc1cc2nc3c(=O)[nH]c(=O)nc-3n(C[C@H](O)[C@H](O)[C@H](O)COP(=O)(O)OP(=O)(O)OC[C@H]3O[C@@H](n4cnc5c(N)ncnc54)[C@H](O)[C@@H]3O)c2cc1C [FAD]
X-ray crystal structure, 2.61 A (MbnF (MbnF-His)): All three monomers of the asymmetric unit bound FAD in the same general conformation

binding result [1]: binds
B1: MbnA peptide (methanobactin MB-SB2 precursor peptide) (peptide)
peptide: IRIAKRITLNVIGRASARCASTCAATNG
notes: MbnA, precursor peptide of methanobactin MB-SB2, Methylocystis sp. strain SB2; the natural precursor may have further residues at its N-terminus; also called MB-SB2 peptide precursor; source: synthetic peptide, bought: AnaSpec (~90% pure)
